The results in this text go back to US8039670B2, “Analogs of alpha galactosyceramide and uses thereof” (Ludwig Institute for Cancer Research, priority 2005, dated 2011).

For one test, the system named is human DC. As to the kind of experiment: DC maturation in co-culture of human DC and iNKT cells (flow cytometry CD83, CD86, CD38). The class given is cell-based. As to conditions: for DC maturation (upregulation of CD83, CD86 and CD38): human DC with iNKT cell clone, 24 hours; for concentration inducing maximal DC maturation: titration on DC, 48 h. The procedure:
(§1) Different analogs of α-GalCer as indicated or LPS were added to co-cultures of human DC and iNKT cells. (A) Maturation of the DC was assessed after 40 h, gating on CD11c positive cells. Histograms indicate the CD83 and CD86 profiles of DC from different treatments; the percentages indicate the percentage of CD83hi mature DC and the numbers in parenthesis, the mean fluorescence intensity of the population contained within the labeled gate. DC and iNKT cells were co-cultured in the presence of different analogs of α-GalCer for 24 hours. Supernatants were analyzed using ELISA for the presence of (B) IL-12p40 released by the DC and (C) IFN-γ from the iNKT cells. […] Cells were co-cultured in the presence of the indicated concentration of analog and the percentages of DC with increased CD83/CD80 are shown. […] Viability of α-GalCer or analog-pulsed DC was assessed after 40 h co-culture in the presence of iNKT cells by flow cytometry. Cells were stained with propidium iodide and the percentage of live CD11c gated cells remaining in the culture are shown.
(§2) Human monocyte-derived DC were pulsed with 150 ng of different inositol analogs and co-cultured with iNKT cells for 24 h. […] Numbers indicate the mean fluorescence intensity of the histogram gated on CD11c^+ cells.
Immature human DC were cultured in the presence of a human iNKT cell clone with or without analogs or vehicle at different concentrations.
To compare the functions of high affinity α-GalCer, intermediate affinity threitolceramide with the known, low affinity analog OCH, the three compounds were titrated onto DC and used to present to iNKT cells. Maturation of DC and DC viability were examined after 48 h.
A general note: In flow cytometry, cells or beads pass a laser one at a time.

Test [1] has as its system DCs obtained from the spleen. The test is described as follows: Example E: phenotyping of spleen DCs after tail vein injection (CD86). The class given is in vivo, mice. As to conditions: 1 μg tail vein, 24 h. As to the method: In brief, in each experiment, 1 μg of one of a selection of compounds of the invention was injected into the tail vein of subject mice. 24 h later spleen tissue was removed from the animals and gently teased through gauze into complete medium, supplemented with 5 mM of EDTA. Cells were enriched for CD11c by anti-CD11, magnetic beads using published techniques. Once enriched, they were assayed for maturation markers using antibody staining and flow cytometry. Non-specific staining was addressed by using an antibody specific for the Fc-RIII/II receptor.

Another test concerns OVA specific response. The test is described as follows: Example C: OVA specific CTL response in mice injected with OVA and compound (tetramer). Type of test: in vivo. As to conditions: for OVA specific response: 400 μg OVA with 1 μg compound i.v.; for CTL response with MPL coinjected: coinjected with 25 μg MPL. As to the method:
Subject animals, five mice per group, received an intravenous injection of 400 μg of ovalbumin (OVA) together with 1 μg of one of the compounds of the invention under examination or an equivalent volume of PBS diluted vehicle solution. A subset of mice were injected with 25 μg of the molecule MPL (Sigma-Aldrich; extracted from Salmonella Minnesota) solubilized in PBS.
Following the injections, blood was obtained from lateral tail veins, and PBLs were isolated, using standard methods. The PBLs were then stained, directly, […], with tetrameric, H-2 Kb/OVA 257-264, H-21 Kb complexes, following Palmowski, et al., J. Immunol., 168:4391-4398 (2002), incorporated by reference. The tetramers were prepared in accordance with Whilan, et al., J. Immunol., 163:4342-4348 (1999), incorporated by reference.

Test [2] relates to IFN-γ from the iNKT cells. As to the kind of experiment: IFN-γ ELISA of supernatants of DC/iNKT co-cultures. As to conditions: analogs presented by DC. Type of test: cell-based, human. As to the method: as §1, §2
The test system of test [3] is IL-12p40 released by the DC. The test is described as follows: IL-12p40 ELISA of supernatants of DC/iNKT co-cultures. The class given is cell-based, human. As to conditions: DC/iNKT co-culture, 24 hours. The procedure:
as §1, §2
Release of IL-12p40 (and bioactive p75) by DC is a marker of activation and is thought to play an important role in regulating the profile of the immune response generated in response to those DC (Trinchieri et al, Nat Rev Immunol, 2003, 3; 133-46).
A general note: An ELISA detects its analyte on a solid surface through an enzyme-linked reagent.

Test [4] deals with human monocyte derived DCs. As to the kind of experiment: Example A: DC maturation markers in human monocyte derived DC with NKT cells (FACS). The class given is cell-based. As to conditions: 100 ng/ml, 36 hours, 10 DC/NKT cell. The procedure:
The methodology of Salio, et al., J. Immunol., 167:1188-1197 (2001), incorporated by reference, was followed. In brief, 2×105 human monocyte derived DCs were pulsed with 100 ng/ml of one of Compounds 2, 3, αGal-Cer, or vehicle solution, as a control. For DC pulsing, each of arabinitol ceramide (Compound 1), threitol ceramide (Compound 3), glycerol ceramide (Compound 2) and αGal-Cer was solubilized in vehicle solution (0.5% Tween 20/PBS), and added to the medium of the DC cultures. […] After 36 hours, supernatant was removed from cultures and analyzed for the presence of known DC maturation markers CD83, CD80, CD86, CD25, and CD38, all of which were analyzed via FACS, using well known methods.

Test [5] relates to antigen-specific CD8^+ T cells. The test is described as follows: OVA-specific CD8+ T cells after co-injection with OVA ([…]-Kb tetramer). The class given is in vivo, C57BL/6 mice. As to conditions: 1 μg with 800 μg OVA, 6 days. The procedure:
(A) C57BL/6 mice were co-injected with 1 μg α-GalCer or analog and 800 μg OVA. 6 days later blood samples taken from the tail vein were stained directly ex vivo with fluorescent […]-K^b tetramers and an anti-CD8 antibody and analyzed by flow cytometry. Data are shown as tetramer positive cells as a percentage of CD8^+ cells. (B) 7 days after injection, the mice were challenged in a prophylactic setting with 1×10^6 E.G7-OVA tumour cells s.c. and the size of the tumour monitored over subsequent days.
Previously we, and others have shown that co-injection of model antigens such as OVA (Silk, Hermans et al, J Clin Invest, 2004, 114; 1800-11, Fujii, Shimizu et al, J Exp Med, 2003, 198; 267-79, Hermans, Silk et al, J Immunol, 2003, 171; 5140-7) and β-galactosidase (Silk, Hermans et al, J Clin Invest, 2004, 114; 1800-11) together with α-GalCer induces enhanced CD8^+, CD4^+ T cell and B cell responses. These were effective for therapy against tumour cells expressing the target antigen. The various analogs were co-injected with OVA into wild type mice and 6 days later the blood examined for the presence of antigen-specific CD8^+ T cells using fluorescent K^b-[…] tetramers.

For the compound `CCCCCCCCCCCCCCCCCCCCCCCCCC(=O)N[C@@H](CO[C@H]1OC(CO)[C@H](O)C(O)C1O)[C@H](O)[C@H](O)CCCCCCCCCCCCCC` (stereo partly drawn) [α-GalCer, α galactosylceramide, reference compound], in the test with human DC, the “DC maturation (upregulation of CD83, CD86 and CD38)” value is reported as “significant upregulation of all the markers examined”; the “concentration inducing maximal DC maturation” value worked out at 0.8 ng/mL. The “induction of CD86 on spleen DC in vivo” value in test [1] is recorded as “induced CD86 in vivo similarly”. Besides, in the test with OVA specific response, the OVA specific response result is listed as “enhancement of the OVA specific response” and the “CTL response with MPL coinjected” value is given as “enhancement of the CTL response”. Also, the “IFN-γ released by the iNKT cells” value in test [2] is reported as “approximately 40 ng/ml”. Moreover, the IL-12p40 released result in test [3] is listed as “significant levels of IL-12p40”.

Turning to `CCCCCCCCCCCCCCCCCCCCCCCCCC(=O)N[C@@H](COC[C@@H](O)CO)[C@H](O)[C@H](O)CCCCCCCCCCCCCC` [Compound 2, Glycerol Ceramide], the “induction of CD86 on spleen DC in vivo” value in test [1] was “induced CD86 in vivo similarly”. Further, the OVA specific response result with OVA specific response is reported as “Enhancement was weakest”. In addition, in test [2], the “IFN-γ released by the iNKT cells” value is roughly 20 ng/mL. In test [3], the “IL-12p40 level relative to that seen with α-GalCer” value was “approximately 50%”. Further, the “induction of DC maturation markers (CD83, CD80, CD86, CD25, CD38)” value in test [4] is given as “DC maturation markers are induced”. The “antigen-specific CD8+ T cell response” value in test [5] is given as “did not”.

For the compound `CCCCCCCCCCCCCCCCCCCCCCCCCC(=O)N[C@@H](COC[C@H](O)[C@@H](O)CO)[C@H](O)[C@H](O)CCCCCCCCCCCCCC` [Compound 3, Threitol Ceramide], in the test with human DC, the “DC maturation (upregulation of CD83, CD86 and CD38)” value is “more potent than glycerolceramide and arabinitolceramide”; the “concentration inducing maximal DC maturation” value stood at 67 ng/mL. In test [1], the “induction of CD86 on spleen DC in vivo” value is recorded as “did not induce the DC86 marker significantly”. Moreover, in the test with OVA specific response, the OVA specific response result was “enhancement of the OVA specific response” and the “CTL response with MPL coinjected” value was “enhancement of the CTL response”. The “IFN-γ released by the iNKT cells” value in test [2] was roughly 20 ng/mL. Also, the “IL-12p40 level relative to that seen with α-GalCer” value in test [3] was “approximately 50%”. Besides, the “induction of DC maturation markers (CD83, CD80, CD86, CD25, CD38)” value in test [4] is reported as “DC maturation markers are induced”. The “antigen-specific CD8+ T cell response” value in test [5] is “induced a significant CD8^+ T cell response after 6 days, although less potently than α-GalCer”.
